This is an account of results in publication PMC11491390, “Inhibition of HCN1 currents by norquetiapine, an active metabolite of the atypical anti-psychotic drug quetiapine” (Frontiers in Pharmacology, 2024).

As usually defined, the IC50 is the midpoint of a concentration-inhibition curve.

Molecules are shown by their SMILES.

The target in the test is T1, HCN1 (Mus musculus, UniProt O88704).
T1 construct: full-length HCN1
The test is described as follows: two-electrode voltage clamp, channel expressed in Xenopus laevis oocytes (shift in V1/[…]). It counts as cell-based. In general terms: Two-electrode voltage clamp is typically applied to oocytes expressing channels or transporters.

T1 sequence (O88704 whole entry): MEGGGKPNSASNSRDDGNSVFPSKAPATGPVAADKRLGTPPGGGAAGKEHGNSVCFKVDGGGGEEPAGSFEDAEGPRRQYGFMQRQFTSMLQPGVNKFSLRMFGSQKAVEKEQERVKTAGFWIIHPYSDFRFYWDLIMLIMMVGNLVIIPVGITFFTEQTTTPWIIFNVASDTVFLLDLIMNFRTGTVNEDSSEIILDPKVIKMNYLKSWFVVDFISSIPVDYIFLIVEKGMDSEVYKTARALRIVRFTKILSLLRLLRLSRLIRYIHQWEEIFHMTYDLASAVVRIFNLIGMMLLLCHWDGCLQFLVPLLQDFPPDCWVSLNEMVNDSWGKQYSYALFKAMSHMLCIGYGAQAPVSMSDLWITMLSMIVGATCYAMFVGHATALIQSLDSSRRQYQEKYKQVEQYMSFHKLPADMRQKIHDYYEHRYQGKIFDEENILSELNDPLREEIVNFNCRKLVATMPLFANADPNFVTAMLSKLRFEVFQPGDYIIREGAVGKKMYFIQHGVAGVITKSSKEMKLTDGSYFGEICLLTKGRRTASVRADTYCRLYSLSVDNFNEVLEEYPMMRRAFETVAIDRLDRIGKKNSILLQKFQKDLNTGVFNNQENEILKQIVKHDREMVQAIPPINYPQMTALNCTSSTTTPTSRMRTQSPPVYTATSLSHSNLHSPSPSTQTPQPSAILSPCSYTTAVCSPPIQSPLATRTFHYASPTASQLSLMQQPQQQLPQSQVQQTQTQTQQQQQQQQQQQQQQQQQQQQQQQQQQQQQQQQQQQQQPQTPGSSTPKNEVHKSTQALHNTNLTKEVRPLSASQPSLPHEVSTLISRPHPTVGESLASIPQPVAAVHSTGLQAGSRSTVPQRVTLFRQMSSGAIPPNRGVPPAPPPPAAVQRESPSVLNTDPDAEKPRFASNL

For `c1ccc2c(c1)N=C(N1CCNCC1)c1ccccc1S2` [NQTP, norquetiapine], the concentration for half-maximal inhibition (IC50) turned out to be 13.9 ± 0.8 µM.
